Values joined by “and” are separate entries in the source; they are usually repeats but may differ in a detail not shown here. Identical values can stand only once.
Legend:
[1] = target: T1, α2,6(N)-sialyltransferases ST6GALI (Homo sapiens, UniProt P15907); assay: Sialyltransferase inhibition assay, ST6GALI (reverse-phase HPLC); type: biochemical; settings: for IC50: IC50 (μM) ST6GALI, α2,6-N-link
T1 construct: purchased RnDSystems.com (R&D Systems)
T1 sequence (P15907 1-406): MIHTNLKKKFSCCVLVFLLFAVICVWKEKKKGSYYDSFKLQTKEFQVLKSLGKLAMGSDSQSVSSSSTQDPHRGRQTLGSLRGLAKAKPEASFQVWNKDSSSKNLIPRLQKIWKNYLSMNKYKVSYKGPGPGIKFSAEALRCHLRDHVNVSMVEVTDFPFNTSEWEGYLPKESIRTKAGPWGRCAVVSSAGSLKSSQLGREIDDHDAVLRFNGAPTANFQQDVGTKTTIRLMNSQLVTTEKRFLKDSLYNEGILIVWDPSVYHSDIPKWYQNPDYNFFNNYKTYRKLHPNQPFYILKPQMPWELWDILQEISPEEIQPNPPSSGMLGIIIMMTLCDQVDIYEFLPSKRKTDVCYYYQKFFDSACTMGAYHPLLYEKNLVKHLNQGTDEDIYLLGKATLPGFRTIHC
Description: (§1) The enzymes analyzed in the present study included rat ST3Gal(I), rat ST3Gal(III), and human ST6Gal(I). Rat ST3Gal(I) and rat ST3Gal(Ill), were purchased from Calbiochem®, while human ST6Gal(I) was purchased from RnDSystems.com.
(§2) Sialyltransferase inhibition assay (α2,6-N-ST) was performed as follows: Sialyltransferase activity was determined by measuring the level of the end product of sialylated saccharides with reverse-phase HPLC. The assay mixtures contained the following components: 200 mM MES buffer; 100 mM NaCl; 0.5 mM EDTA; 0.01% Triton X-100; 1.4 mU ST6GALI; 25 μM Galβ1-4GlcNAc; 1 mM CMP-Neu5Ac and different concentration of Sialyltransferase inhibitors to a total volume of 50 μl. The assay mixture was incubated at 37° C. for 15 mins and then quenched by heating up to 101° C. for 10 mins. The sialylated product is resolved with reversed-phase HPLC. Kinetic data were obtained by fitting the initial rate data to the nonlinear regression equation.
(§3) Effects of the present compounds on the activity of sialyltransferase, including α2,3(N)-sialyltransferase ST3GALIII, α2,6(N)-sialyltransferases ST6GALI, and α2,3(O)-sialyltransferase ST3GALI, were determined in accordance with procedures described in the “Materials and Methods” section, and results are summarized in Table 1.

[2] = target: T2, α2,3(O)-sialyltransferase ST3GALI (Rattus norvegicus, UniProt Q6H8N0); assay: Sialyltransferase inhibition assay, ST3GALI (reverse-phase HPLC); type: biochemical; settings: read-out: ST3GALI inhibition percentage; for inhibition at 500 µM: measured at 500 μM
T2 construct: purchased Calbiochem
T2 sequence (Q6H8N0 1-340): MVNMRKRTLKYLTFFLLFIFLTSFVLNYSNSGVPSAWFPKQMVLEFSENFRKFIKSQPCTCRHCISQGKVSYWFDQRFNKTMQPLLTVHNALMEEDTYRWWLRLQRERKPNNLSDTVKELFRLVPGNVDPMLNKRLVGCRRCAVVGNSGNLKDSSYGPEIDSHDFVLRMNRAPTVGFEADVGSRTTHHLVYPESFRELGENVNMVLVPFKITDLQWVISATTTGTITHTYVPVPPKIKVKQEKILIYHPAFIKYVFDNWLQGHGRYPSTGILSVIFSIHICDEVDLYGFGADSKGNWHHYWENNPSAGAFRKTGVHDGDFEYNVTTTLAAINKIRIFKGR
Description: as §1
as §2, with “mU ST3GALI; 2.5 mM T-antigen;” for “mU ST6GALI; 25 μM Galβ1-4GlcNAc;”, “to 101′C” for “to 101° C.”, “product was” for “product is”, “resolved by” for “resolved with”
as §3

[3] = target: T3, α2,3(N)-sialyltransferase ST3GALIII (Rattus norvegicus, UniProt Q02734); assay: Sialyltransferase activity assay, ST3GALIII; type: biochemical; settings: IC50 (μM) ST3GALIII, α2,3-N-link
T3 construct: purchased Calbiochem
T3 sequence (Q02734 1-374): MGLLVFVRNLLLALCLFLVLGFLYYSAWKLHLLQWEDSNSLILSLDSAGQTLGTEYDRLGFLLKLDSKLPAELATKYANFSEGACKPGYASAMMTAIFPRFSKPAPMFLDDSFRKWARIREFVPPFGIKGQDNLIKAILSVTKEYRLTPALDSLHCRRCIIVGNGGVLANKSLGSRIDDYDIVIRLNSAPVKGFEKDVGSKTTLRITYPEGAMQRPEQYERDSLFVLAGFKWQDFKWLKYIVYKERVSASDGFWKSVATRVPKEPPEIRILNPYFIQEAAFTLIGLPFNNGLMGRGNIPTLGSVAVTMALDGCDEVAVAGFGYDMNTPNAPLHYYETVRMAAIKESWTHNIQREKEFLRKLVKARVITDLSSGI

SMILES | melting point [°C] | selectivity ratio ST3GALI/ST6GALI [1] | IC50 [1] | inhibition at 500 µM [2] [%] | IC50 [3] | inhibition at 1000 µM ([2]; measured at 1 mM) [%]
C[C@H](CCC(=O)OCCOCCOCCN=[N+]=[N-])C1CC[C@H]2[C@@H]3CC[C@@H]4C[C@H](OC(=O)[C@H](CC(=O)O)NC(=O)c5ccc([N+](=O)[O-])cc5)CC[C@]4(C)[C@H]3CC[C@]12C (stereo partly drawn) [Compound 8, (3S)-4-(((3R,5R,8R,9S,10S,13R,14S)-17-((R)-5-(2-(2-(2-azidoethoxy)ethoxy)ethoxy)-5-oxopentan-2-yl)-10,13-dimethylhexadecahydro-1H-cyclopenta[a]phenanthren-3-yl)oxy)-3-(4-nitrobenzamido)-4-oxobutanoic acid] | 52 to 53 | >94 | 5.35 ± 0.46 µM | 0 | – | –
C[C@H](CCC(=O)OCCN=[N+]=[N-])C1CC[C@H]2[C@@H]3CC[C@@H]4C[C@H](OC(=O)[C@H](CC(=O)O)NC(=O)c5ccc([N+](=O)[O-])cc5)CC[C@]4(C)[C@H]3CC[C@]12C (stereo partly drawn) [Compound 6, (3S)-4-(((3R,5R,8R,9S,10S,13R,14S)-17-((R)-5-(2-azidoethoxy)-5-oxopentan-2-yl)-10,13-dimethylhexadecahydro-1H-cyclopenta[a]phenanthren-3-yl)oxy)-3-(4-nitrobenzamido)-4-oxobutanoic acid] | 61 to 62 | >70 | 7.21 ± 0.1 µM | 0 | – | –
COc1ccc2c(CC(=O)N[C@@H](CC(=O)O)C(=O)O[C@@H]3CC[C@@]4(C)[C@H](CC[C@@H]5[C@@H]4CC[C@]4(C)C([C@H](C)CCC(=O)OCCOCCN=[N+]=[N-])CC[C@@H]54)C3)cc(=O)oc2c1 (stereo partly drawn) [Compound 12, (3S)-4-(((3R,5R,8R,9S,10S,13R,14S)-17-((R)-5-(2-(2-azidoethoxy)ethoxy)-5-oxopentan-2-yl)-10,13-dimethylhexadecahydro-1H-cyclopenta[a]phenanthren-3-yl)oxy)-3-(2-(7-methoxy-2-oxo-2H-chromen-4-yl)acetamido)-4-oxobutanoic acid] | 142 to 143 | >97 | 5.14 ± 0.11 µM | 0 | – | –
COc1ccc2c(CC(=O)N[C@@H](CC(=O)O)C(=O)O[C@@H]3CC[C@@]4(C)[C@H](CC[C@@H]5[C@@H]4CC[C@]4(C)C([C@H](C)CCC(=O)OCCOCCOCCOCCOCCN=[N+]=[N-])CC[C@@H]54)C3)cc(=O)oc2c1 (stereo partly drawn) [Compound 15, (3S)-4-(((3R,5R,8R,9S,10S,13R,14S)-17-((R)-1-azido-16-oxo-3,6,9,12,15-pentaoxaicosan-19-yl)-10,13-dimethylhexadecahydro-1H-cyclopenta[a]phenanthren-3-yl)oxy)-3-(2-(7-methoxy-2-oxo-2H-chromen-4-yl)acetamido)-4-oxobutanoic acid] | 113 to 114 | >88 | 5.69 ± 0.4 µM | 0 | – | –
COc1ccc2c(CC(=O)N[C@@H](CC(=O)O)C(=O)O[C@@H]3CC[C@@]4(C)[C@H](CC[C@@H]5[C@@H]4CC[C@]4(C)C([C@H](C)CCC(=O)OCCOCCOCCOCCN=[N+]=[N-])CC[C@@H]54)C3)cc(=O)oc2c1 (stereo partly drawn) [Compound 14, (3S)-4-(((3R,5R,8R,9S,10S,13R,14S)-17-((R)-1-azido-13-oxo-3,6,9,12-tetraoxaheptadecan-16-yl)-10,13-dimethylhexadecahydro-1H-cyclopenta[a]phenanthren-3-yl)oxy)-3-(2-(7-methoxy-2-oxo-2H-chromen-4-yl)acetamido)-4-oxobutanoic acid] | 126 to 127 | >101 | 4.95 ± 0.37 µM | 0 | – | –
C[C@H](CCC(=O)OCCN=[N+]=[N-])C1CC[C@H]2[C@@H]3CC[C@@H]4C[C@H](OC(=O)[C@H](CC(=O)O)Nc5ccc([N+](=O)[O-])c6nonc56)CC[C@]4(C)[C@H]3CC[C@]12C (stereo partly drawn) [Compound 1, (3S)-4-(((3R,5R,8R,9S,10S,13R,14S)-17-((R)-5-(2-azidoethoxy)-5-oxopentan-2-yl)-10,13-dimethylhexadecahydro-1H-cyclopenta[a]phenanthren-3-yl)oxy)-3-((7-nitrobenzo[c][1,2,5]oxadiazol-4-yl)amino)-4-oxobutanoic acid] | 78 to 79 | – | 4.2 µM and 4.33 µM | 0 | 0.8 µM and 0.77 µM | 74
COc1ccc2c(CC(=O)N[C@@H](CC(=O)O)C(=O)O[C@@H]3CC[C@@]4(C)[C@H](CC[C@@H]5[C@@H]4CC[C@]4(C)C([C@H](C)CCC(=O)OCCN=[N+]=[N-])CC[C@@H]54)C3)cc(=O)oc2c1 (stereo partly drawn) [Compound 11, (3S)-4-(((3R,5R,8R,9S,10 S,13R,14S)-17-((R)-5-(2-azidoethoxy)-5-oxopentan-2-yl)-10,13-dimethylhexadecahydro-1H-cyclopenta[a]phenanthren-3-yl)oxy)-3-(2-(7-methoxy-2-oxo-2H-chromen-4-yl)acetamido)-4-oxobutanoic acid] | 151 to 152 | >89 | 5.59 ± 0.24 µM | 0 | – | –
COc1ccc2c(CC(=O)N[C@@H](CC(=O)O)C(=O)O[C@@H]3CC[C@@]4(C)[C@H](CC[C@@H]5[C@@H]4CC[C@]4(C)C([C@H](C)CCC(=O)OCCOCCOCCN=[N+]=[N-])CC[C@@H]54)C3)cc(=O)oc2c1 (stereo partly drawn) [Compound 13, (3S)-4-(((3R,5R,8R,9S,10S,10S,3R,14S)-17-((R)-5-(2-(2-(2-azidoethoxy)ethoxy)ethoxy)-5-oxopentan-2-yl)-10,13-dimethylhexadecahydro-1H-cyclopenta[a]phenanthren-3-yl)oxy)-3-(2-(7-methoxy-2-oxo-2H-chromen-4-yl)acetamido)-4-oxo butanoic acid] | 134 to 135 | >109 | 4.61 ± 0.35 µM | 0 | – | –
